In publication PMC3779521 (Organic letters, 2013) one finds Km data, which are given here for one molecule.

This experiment deals with CazF. Format: biochemical. To be noted: propargyl donor at MT domain; co-substrate acetoacetyl-SNAC (4).

What is called Km is the concentration of substrate that gives half-maximal velocity. Turning to `C#CC[Se+](CC[C@H](N)C(=O)O)C[C@H]1O[C@@H](n2cnc3c(N)ncnc32)[C@H](O)[C@@H]1O` (stereo partly drawn) [compound 2, propargylic Se-adenosyl-L-methionine], the Km amounted to 43.6 µM.
